Test results reported in patent US6632946B2, “Tetracyclic analogues of camptothecins, their preparation processes, their use as medicaments and the pharmaceutical compositions containing them” (Societe de Conseils de Recherches et d'Applications …, priority 1997, dated 2003).
Where two headings read alike, the source gives them in different places.

Experiments:
[1] = target: T1, calf thymus topoisomerase I (Bos taurus, UniProt F1MN93); conditions: for PERCENTAGE OF RELAXED DNA: relaxed DNA with respect to total DNA, pUC 19, 37° C. 15 min
T1 sequence (F1MN93 1-767): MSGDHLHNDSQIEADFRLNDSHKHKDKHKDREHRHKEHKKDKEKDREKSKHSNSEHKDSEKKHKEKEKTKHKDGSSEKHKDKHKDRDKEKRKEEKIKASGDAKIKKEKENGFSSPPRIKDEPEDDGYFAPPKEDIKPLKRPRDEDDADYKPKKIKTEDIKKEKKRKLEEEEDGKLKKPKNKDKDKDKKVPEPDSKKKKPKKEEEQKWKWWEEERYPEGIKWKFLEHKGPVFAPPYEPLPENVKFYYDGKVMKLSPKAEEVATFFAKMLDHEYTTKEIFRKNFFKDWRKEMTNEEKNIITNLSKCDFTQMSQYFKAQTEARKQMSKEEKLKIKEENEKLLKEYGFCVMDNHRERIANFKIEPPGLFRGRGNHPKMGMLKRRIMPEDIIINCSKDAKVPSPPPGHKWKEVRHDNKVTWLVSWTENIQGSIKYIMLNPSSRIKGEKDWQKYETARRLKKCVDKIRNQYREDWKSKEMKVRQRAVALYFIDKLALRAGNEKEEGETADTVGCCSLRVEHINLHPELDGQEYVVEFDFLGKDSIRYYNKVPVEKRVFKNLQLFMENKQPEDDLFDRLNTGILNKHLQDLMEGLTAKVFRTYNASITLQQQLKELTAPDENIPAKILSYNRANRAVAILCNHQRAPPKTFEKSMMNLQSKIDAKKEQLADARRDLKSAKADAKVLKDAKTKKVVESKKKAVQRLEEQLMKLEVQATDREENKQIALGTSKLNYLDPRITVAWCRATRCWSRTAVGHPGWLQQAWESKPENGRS
Method: 1. Inhibition test of the relaxation of supercoiled DNA induced by topoisomerase I.
Supercoiled plasmidic DNA (pUC 19, Pharmacia Biotech, Orsay, France, 300 ng) is incubated at 37° C. for 15 min in the presence of calf thymus topoisomerase I (Gibco-BRL, Paisley, United Kingdom, 1 unit) in 20 μl of reaction buffer (Tris-HCl pH 7.5:50 mM, KCl: 50 mM, DTT: 0.5 mM, MgCl2: 10 mM, EDTA: 0.1 mM, bovine serum albumin: 0.030 mg/ml) and of a potentiel inhibitor (prepared in a 50 mM extemporaneous solution in dimethylsulphoxide, then diluted with distilled water in order to obtain a final concentration of 500 μM, 200 μM, 100 μM or 10 μM, not exceeding 1% of dimethylsulphoxide). The reaction is stopped by the addition of 3 μl of a denaturing solution (proteinase K: 500 μg/ml, sodium dodecylsulphate: 1%, EDTA: 20 mM) followed by incubation at 37° C. for 30 min, then 2 μl of a loading buffer (bromophenol blue: 0.3%, sodium hydrogen phosphate: 10 mM, polysucrose Ficoll®-400: 16%) are added and the sample is placed on a 1.2% agarose gel (Sea-Kem-GTG, FMC Bioproducts/Tebu, Perray-en-Yvelines, France) containing 2 μg/ml of chloroquine. The electrophoretic migration is carried out at a voltage of 1V/cm for 20 hours, with recirculation of the electrophoresis buffer (Tris-HCl: 36 mM, sodium dihydrogen phosphate: 30 mM, EDTA: 1 mM). The gel is then stained under agitation with 2 μg/ml ethidium bromide, then photographed under ultraviolet light at 312 nm (CCD camera Vilber-Lourmat, Lyon, France). Densitometric analysis (BioProfil image analyzer Vilber-Lourmat, Lyon, France) allows the percentage of relaxed DNA with respect to total DNA to be expressed, at the chosen concentration of inhibitor.

topoisomerase II = conditions: for PERCENTAGE OF RELAXED DNA: relaxed DNA with respect to total DNA, pUC 19, 37° C. 15 min
Method: 2. Inhibition test of the relaxation of supercoiled DNA induced by topoisomerase II.
Supercoiled plasmidic DNA (pUC 19, Pharmacia Biotech, Orsay, France, 300 ng) is incubated at 37° C. for 15 min in the presence of calf thymus […] (Gibco-BRL, Paisley, United Kingdom, 7 units) in 20 μl of reaction buffer (Tris-HCl pH 7.9: 10 mM, KCl: 50 mM, NaCl: 50 mM, MgCl2: 5 mM, ATP: 1 mM, EDTA: […], bovine serum albumin: 15 mg/ml) and of a potential inhibitor (prepared in a 50 mM extemporaneous solution in dimethylsulphoxide, then diluted with distilled water in order to obtain a final concentration of 500 μM, 200 μM, 100 μM or 10 μM, not exceeding 1% of dimethylsulphoxide). The reaction is stopped by the addition of 3 μl of a denaturing solution (proteinase K: 500 μg/ml, sodium dodecylsulphate: 1%, EDTA: 20 mM) followed by incubation at 37° C. for 30 min, then 2 μl of a loading buffer (bromophenol blue: 0.3%, sodium hydrogen phosphate: 10 mM, polysucrose Ficoll®-400: 16%) are added and the sample is placed on a 1.2% agarose gel (Sea-Kem-GTG, FMC Bioproducts/Tebu, Perray-en-Yvelines, France) containing 2 μg/ml of chloroquine. The electrophoretic migration is carried out at a voltage of 1V/cm for 20 hours, with recirculation of the electophoresis buffer (Tris-HCl: 36 mM, sodium dihydrogen phosphate: 30 mM, EDTA: 1 mM). The gel is then stained under agitation with 2 μg/ml ethidium bromide, then photographed under ultraviolet light at 312 nm (CCD camera Vilber-Lourmat, Lyon, France). Densitometric analysis (BioProfil image analyzer Vilber-Lourmat, Lyon, France) allows the percentage of relaxed DNA with respect to the total DNA to be expressed, at the chosen concentration of inhibitor.

[2] = at concentrations greater than 10 μM

Row | SMILES | PERCENTAGE OF RELAXED DNA ([1]; inhibitor concentration 10 μM) | PERCENTAGE OF RELAXED DNA ([1]; inhibitor concentration 100 μM) | PERCENTAGE OF RELAXED DNA ([1]; inhibitor concentration 200 μM) | PERCENTAGE OF RELAXED DNA ([1]; inhibitor concentration 500 μM) | PERCENTAGE OF RELAXED DNA (topoisomerase II; inhibitor concentration 10 μM) | PERCENTAGE OF RELAXED DNA (topoisomerase II; inhibitor concentration 100 μM) | PERCENTAGE OF RELAXED DNA (topoisomerase II; inhibitor concentration 200 μM) | PERCENTAGE OF RELAXED DNA (topoisomerase II; inhibitor concentration 500 μM) | inhibition of topoisomerase II compared with etoposide (topoisomerase II; [2]) | inhibition of topoisomerase I compared with camptothecin [1, 2]
1 | CC[C@@]1(O)C(=O)OCc2c1cc1n(c2=O)Cc2cc3ccccc3nc2-1 [Camptothecin] | 95.5 ± 1.4% | 64.2 ± 6.1% | 60.6 ± 12.0% | 55.6 ± 8.8% | – | – | – | – | – | –
2 | COc1cc([C@@H]2c3cc4c(cc3[C@@H](O[C@@H]3O[C@@H]5CO[C@@H](C)O[C@H]5[C@H](O)[C@H]3O)[C@H]3COC(=O)[C@H]23)OCO4)cc(OC)c1O [Etoposide, reference compound] | – | – | – | – | 92.6 ± 2.5% | 28.5 ± 2.2% | 18.6 ± 1.4% | 12.0 ± 0.8% | – | –
3 | CCC(O)(CC(=O)O)c1cc2n(c(=O)c1)Cc1cc3ccccc3nc1-2 (stereo not drawn) [Example 6, 3-Hydroxy-3-(4-oxo-4,6-dihydroindolizino[1,2-b]quinoline-2-yl)pentanoic Acid] | 95.2 ± 2.8% | 28.5 ± 3.5% | 15.5 ± 3.6% | 10.3 ± 2.8% | 98.8 ± 0.4% | 9.9 ± 0.7% | 11.5 ± 1.9% | 6.5 ± 1.0% | better inhibitor of topoisomerase II than etoposide | better inhibitor of topoisomerase I than camptothecin
